The source of these data is patent US8481494B2, “Compounds for the treatment of diseases related to protein misfolding” (priority 2009, dated 2013).

In brackets after ≈: the same amount, converted by molar mass. Where two headings read alike, the source gives them in different places. *1 amine or outer side, *2 acyl side, *3 side chain or, on linkers, in order; H or OH if unused. Where a SMILES comes first, the peptide text is derived from it. [ ]: non-standard residue; d: D form. The star is where a group is joined. X1 = O=C(c1cc([N+](=O)[O-])n[nH]1)*; X2 = O=C(c1cc(N[*:1])n[nH]1)[*:2]; AEEEA = NCCOCCOCCOCC(=O)O

Series [1] deals with T1, preformed Aβ(1-42) fibrils (Homo sapiens, UniProt P05067).
T1 construct: Aβ(1-42)-peptide (Bachem, Bubendorf, Germany) was prepared in HFIP; purchased Bachem, Bubendorf
T1 sequence (P05067 672-713 limits assumed): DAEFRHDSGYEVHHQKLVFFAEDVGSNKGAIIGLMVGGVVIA
Kind of series: ThT equilibrium disaggregation assay of preformed fibrils. It counts as biochemical. The settings on record: 33 μM Aβ42 preformed fibrils, 198 μM ligand, 10 mM PBS pH 7.3. The text has this: Starting from preformed fibrils, the disassembly process was also monitored with the full series of modified trimeric aminopyrazoles. […] In other words, little difference is observed between the end points of aggregation assays, in which the ligand inhibits de novo aggregation starting from monomeric Aβ molecules, and those experiments, which require disaggregation of preformed fibrils by externally added ligand. Experimental evidence is thus provided for the fact, that aminopyrazole ligands operate in a fully reversible fashion, and reach an open equilibrium when the thermodynamically most favorable complex is formed.
(§1) Thioflavin T (ThT) measurements were carried out in a 384-well plate (Nunc GmbH, Wiesbaden, Germany) in an InfiniTe 200 plate reader (Tecan GmbH, Crailsheim, Germany). Fluorescence intensity was measured at 37° C., 446 nm excitation wavelength (bandwidth 9 nm) and 490 nm emission wavelength with a bandwidth of 20 nm. Each data point was averaged over 40 lamp flashes. Each measurement cycle was started by shaking the sample carrier orbitally for 30 s at medium intensity to avoid settling of larger aggregates. The 384-well plate was covered with a transparent and DMSO-stable film (Nunc GmbH, Wiesbaden, Germany). Each single sample was composed of 33 μM Aβ(1-40) or rather Aβ(1-42) in 10 mM PBS (phosphate buffered saline), 10.7% DMSO, 10 μM ThT and 198 μM of the test compound. For graph representation emission values of fourfold samples were averaged. Each test compound was measured separately, both in 10 mM PBS and 10 mM PBS with ThT to exclude any potential interactions between ligand and ThT.
After that, 9.5 μL ThT (62.7 μM stock solution) was pipetted and the assay solution was briefly centrifugated. The ThT fluorescence was measured at λEx=446 nm and λEm=490 nm. For graph representation emission values of fourfold samples were averaged.

The target of the next series is T2, Aβ(1-42) (Homo sapiens, UniProt P05067).
T2 construct: Aβ(1-42)-peptide (Bachem, Bubendorf, Germany) was prepared in HFIP; purchased Bachem, Bubendorf
T2 sequence (P05067 672-713 limits assumed): as above
Kind of series: ThT equilibrium inhibition assay of Aβ aggregation. The settings on record: for ThT fluorescence level, inhibition of aggregation: 33 μM Aβ42, 198 μM ligand, 10 mM PBS pH 7.3, 72 h. It counts as biochemical. The method, then: After 72 h, the aggregation process has reached a maximum in the absence or presence of any trimeric ligand, even for the slow Aβ (1-40) peptide. The respective equilibrium concentration is then indicated by the relative fluorescence intensity reached at the end point. The full series of new aminopyrazole trimer derivatives was subjected to ThT inhibition experiments and the final equilibrium was analyzed by comparison of the respective fluorescence intensities of intercalated dye at 482 nm (exc. at 442 nm). […] Their proposed mechanism of action is discussed within the next chapters together with all the other biophysical, biochemical as well as modeling data.
as §1
The ThT assay solution was briefly centrifugated and it was pipetted in a 384-well plate. The ThT fluorescence was measured at λEx=446 nm and λEm=490 nm. Each point is the average of quadruplication.

Series [2] relates to differentiated rat pheochromocytoma (PC-12) cells. The series is described as follows: cells. The method, then: Next, to examine whether the aminopyrazole trimers could protect cell from Aβ42-induced neurotoxicity, cells were treated for […] with 10 μM Aβ(1-42), a concentration that produces 30 to 40% decrease in cell viability, in the absence or presence of 100 μM of each compound. The viability of the cells then was assessed using the MTT assay.
MTT viability assays. Cell viability assays were performed as described in Fradinger et al. (Fradinger et al., PNAS, 2008). Rat pheochromocytoma (PC-12) cells were maintained in F-12 nutrient mixture with Kaighn's modification (F-12K) (Gibco BRL, Carlsbad, Calif.) with 15% heat-inactivated horse serum and 2.5% FBS at 37° C. in an atmosphere of 5% CO2. For cell viability assays, cells were plated in 96-well plates at a density of 25,000 cells per well in differentiation media (F-12K, 0.5% FBS, […] nerve growth factor) and maintained for 48 h. Aβ42 was solubilized in a minimal amount of DMSO (Sigma) and then diluted in the F-12K media in the absence or presence of the compounds and then added to cells and incubated for 48 h at 37° C. The final Aβ42 concentration was always kept constant at 10 μM. The stock solutions of the compounds were prepared at 10 mM in DMSO and diluted in the F-12K media at the required concentration. Negative controls included DMSO at the same concentration as in the peptide solutions and media alone. A positive control was […] staurosporine as lethal dose which represented 100% reduction in cell viability, based on which the percentage viability of all of the experimental conditions was calculated. Cell viability was assessed quantitatively by the CellTiter 96 Non-Radioactive Cell Proliferation Assay (Promega). Briefly, 15 μl of 3-(4,5-dimethylthiazol-2-yl)-2,5-diphenyltetra-zolium bromide (MTT) dye solution was incubated with the cells for 3 h. Then 100 μl of solubilization/stop solution was added and the plates were incubated overnight in the dark to ensure complete solubilization. Plates were read by using a Synergy HT microplate reader (BioTek), and the absorbance at 570 nm (formazan product) minus the absorbance at 630 nm (background) was recorded. Corrected absorbance was used to calculate the percent cell viability from the experimental change (Amedia-Aexperimental) over the dynamic range (Amedia-Astaurosporine). At least three independent experiments with six replicates (n≧18) were carried out, and the results were averaged.
To determine the IC50 value of each of the compounds, dose-dependence MTT experiments with the compounds were conducted. Aβ42 was used at 10 μM and the compounds were used at 100, 30, 10, 3, 1 and 0.3 μM. Three independent experiments with six replicates (n≧18) were carried out, and results were averaged. The data for each compound was fitted to the following equation to get the IC50 values. y=Bottom+((Top−Bottom)/(1+10^(x-log(IC^50^))))
Top: the y value at which the top of the sigmoidal curve becomes parallel to the X-axis; Bottom: the y value at which the bottom of the sigmoidal curve becomes parallel to the X-axis.
Also, MTT viability assays were run with differentiated PC-12 cells.

For the compound “1-(3-(3-(3-nitro-1H-pyrazole-5-carboxamido)-1H-pyrazole-5-carbox-amido)-1H-pyrazol-5-yl)-1-oxo-5,8,11-trioxa-2-azatridecan-13-carboxamido-(S)-lysinyl-(S)-lysinyl-(S)-lysinyl-(S)-lysinyl-(S)-lysinyl-(S)-glycine [Trimer-TEG-KKKKKG-OH]”, the “ThT fluorescence level, disaggregation” value in series [1] stood at 20%. Besides, the “ThT fluorescence level, inhibition of aggregation” value (“ThT fluorescence level, inhibition” below) at Aβ(1-42) came out at 20%.
In turn, `NCCCC[C@H](NC(=O)c1cc(NC(=O)c2cc(NC(=O)c3cc([N+](=O)[O-])n[nH]3)n[nH]2)n[nH]1)C(=O)N[C@@H](CCCCN)C(=O)N[C@@H](CCCCN)C(=O)N[C@@H](CCCCN)C(=O)N[C@@H](CCCCN)C(=O)NCC(=O)O` [Trimer-KKKKKG-OH, 3-(3-(3-nitro-1H-pyrazole-5-carboxamido)-1H-pyrazole-5-carboxamido)-1H-pyrazole-5-carboxamido-(S)-lysinyl-(S)-lysinyl-(S)-lysinyl-(S)-lysinyl-(S)-lysinyl-(S)-glycine] (X1-[X2][X2]KKKKKG-OH) had a solubility greater than 4.95 mM. The “ThT fluorescence level, disaggregation” value in series [1] was 20%. In addition, at Aβ(1-42), the “ThT fluorescence level, inhibition” value was determined as 20%.
In the case of `CC(C)C[C@H](NC(=O)[C@H](CCCCN)NC(=O)COCCOCCOCCNC(=O)c1cc(NC(=O)c2cc(NC(=O)c3cc([N+](=O)[O-])n[nH]3)n[nH]2)n[nH]1)C(=O)N[C@H](C(=O)N[C@@H](Cc1ccccc1)C(=O)N[C@@H](Cc1ccccc1)C(=O)O)C(C)C` [Trimer-TEG-KLVFF-OH, 1-(3-(3-(3-Nitro-1H-pyrazole-5-carboxamido)-1H-pyrazole-5-carbox-amido)-1H-pyrazol-5-yl)-1-oxo-5,8,11-trioxa-2-azatridecan-13-carboxamido-(S)-lysinyl-(S)-leucinyl-(S)-valinyl-(S)-phenylalaninyl-(S)-phenylalanine] (X1-[X2][X2][AEEEA]KLVFF-OH), the solubility lay within 0.2 to 4.95 mM (≈ 240 to 5940 µg/mL). For the same compound, the IC50 in series [2] is greater than 100 µM.
For `COC(=O)C(CCCCN)NC(=O)COCCOCCOCCNC(=O)c1cc(NC(=O)c2cc(NC(=O)c3cc([N+](=O)[O-])n[nH]3)n[nH]2)n[nH]1.O=C(O)C(F)(F)F` (stereo not drawn) [Trimer-TEG-Lys-OMe, Trifluoro-acetate5-methoxycarbonyl-5-(2-{2-[2-(2-{[5-({5-[(5-nitro-2H-pyrazole-3-carbonyl)-amino]-2H-pyrazole-3-carbonyl}-amino)-2H-pyrazole-3-carbonyl]-amino}-ethoxy)-ethoxy]ethoxy}-acetylamino)-pentyl-ammonium], the “ThT fluorescence level, disaggregation” value in series [1] is listed as 20%. In addition, in series [2] (PC-12 cells, 10 μM Aβ(1-42), 100 μM compound), the “viability increase (rescue from Aβ toxicity)” value is recorded as greater than 40%. Besides, in series [2] (read-out: IC50 of inhibition of Aβ-induced toxicity, PC-12 cells, MTT, Aβ42 10 μM, ligand 0.3-100 μM), the IC50 was 52.7 µM. At Aβ(1-42), the “ThT fluorescence level, inhibition” value is 20%. For the same compound, at Aβ(1-42) (Aβ(1-42), in words), the “ThT values compared with the original trimer” value is “surpass the original trimer activity”.
